DBAASP
In brackets after ≈: the same amount, converted by molar mass.

Tests used:
Test in all cases: ≥ marks a high value that may be exact or a test limit, other limits are often not marked, values filed in µg/mL are converted to µM
[1] = test system: Micrococcus luteus ATCC 4698
[2] = test system: Candida albicans ATCC 200955
[3] = test system: Enterococcus faecium ATCC 700221
[4] = test system: Escherichia coli ATCC 25922
[5] = test system: Pseudomonas aeruginosa ATCC 27853
[6] = test system: Staphylococcus aureus ATCC 33591
[7] = test system: Candida albicans NCPF 1467
[8] = test system: Escherichia coli NCTC 10418
[9] = test system: Staphylococcus aureus NCTC 10788
[10] = test system: Clavibacter michiganensis subsp. michiganensis DSM 46294
[11] = test system: Pectobacterium carotovorum subsp. carotovorum DSM 30168
[12] = test system: Pseudomonas corrugata DSM 7228
[13] = test system: Pseudomonas syringae pv. syringae DSM 10604
[14] = test system: Pseudomonas syringae pv. tomato DC3000
[15] = test system: Xanthomonas vesicatoria DSM 50861
[16] = test system: Acinetobacter baumannii ATCC 19606
Acinetobacter baumannii = test system: Acinetobacter baumannii
[17] = test system: Bacillus subtilis ATCC 6051
[18] = test system: Candida albicans ATCC 90028
[19] = test system: Cryptococcus neoformans ATCC 208821
[20] = test system: Klebsiella pneumoniae ATCC 13883
[21] = test system: Klebsiella pneumoniae ATCC 700603
[22] = test system: Klebsiella pneumoniae ATCC BAA-2146
Klebsiella pneumoniae = test system: Klebsiella pneumoniae
Pseudomonas aeruginosa = test system: Pseudomonas aeruginosa
[23] = test system: Staphylococcus aureus ATCC 43300
Escherichia coli K-12 = test system: Escherichia coli K-12
[24] = test system: Pseudomonas aeruginosa PAO1
[25] = test system: Staphylococcus aureus NCTC 8325-4

Compound | MIC [4] | MIC [5] | MIC [16] | MIC (Acinetobacter baumannii) | MIC [17] | MIC [18] | MIC [19] | MIC [20] | MIC [21] | MIC [22] | MIC (Klebsiella pneumoniae) | MIC (Pseudomonas aeruginosa) | MIC [23] | further results
CC[C@H](C)[C@H](NC(=O)[C@H](CO)NC(=O)[C@H](CCCCN)NC(=O)[C@H](CO)NC(=O)[C@H](Cc1cnc[nH]1)NC(=O)[C@H](CCCN=C(N)N)NC(=O)[C@H](Cc1cnc[nH]1)NC(=O)[C@H](CO)NC(=O)[C@H](CCC(N)=O)NC(=O)[C@H](Cc1ccc(O)cc1)NC(=O)[C@H](CC(N)=O)NC(=O)[C@H](CC(N)=O)NC(=O)[C@@H]1CCCN1C(=O)[C@H](CO)NC(=O)CNC(=O)[C@H](Cc1ccccc1)NC(=O)CN)C(=O)N1CCC[C@H]1C(=O)NCC(=O)N[C@@H](CCCN=C(N)N)C(=O)O [GFGSPNNYQSHRHSKSIPGR] | – | – | – | – | – | – | – | – | – | – | – | – | – | MIC [1]: ≥ 75 µM
CC[C@H](C)[C@H](NC(=O)[C@H](Cc1c[nH]c2ccccc12)NC(=O)[C@H](CCCCN)NC(=O)[C@H](CC(C)C)NC(=O)[C@H](CC(C)C)NC(=O)CN)C(=O)N[C@@H](CCCCN)C(=O)N[C@@H](CCCCN)C(=O)N[C@@H](CC(C)C)C(=O)N[C@@H](CC(C)C)C(N)=O [GLLKWIKKLL] | 3.2 µM (≈ 3.87 µg/mL) | 9.5 µM (≈ 11.5 µg/mL) | – | – | – | – | – | – | – | – | – | – | – | MIC [2]: 3.2 µM (≈ 3.87 µg/mL); MIC [3]: 3.2 µM (≈ 3.87 µg/mL); MIC [6]: 2.5 µM (≈ 3.03 µg/mL)
CC[C@H](C)[C@H](NC(=O)CNC(=O)[C@@H]1CCCN1C(=O)[C@H](CC(C)C)NC(=O)[C@H](C)NC(=O)[C@H](CC(N)=O)NC(=O)[C@H](CCCCN)NC(=O)[C@@H](NC(=O)[C@@H](NC(=O)[C@H](CO)NC(=O)[C@H](CC(C)C)NC(=O)[C@@H](NC(=O)CN)C(C)C)C(C)C)[C@@H](C)CC)C(=O)N[C@@H](CCSC)C(=O)N[C@@H](CCCN=C(N)N)C(=O)N[C@@H](Cc1ccccc1)C(=O)N[C@H](C(=O)N[C@@H](C)C(N)=O)[C@@H](C)CC [GVLSVIKNALPGIMRFIA] | – | – | – | – | – | – | – | – | – | – | – | – | – | MIC [7]: 4.21 µM (≈ 8 µg/mL); MIC [8]: ≥ 33.7 µM; MIC [9]: 4.21 µM (≈ 8 µg/mL)
CC[C@H](C)[C@H](NC(=O)[C@H](CC(C)C)NC(=O)[C@H](CCCN=C(N)N)NC(=O)[C@H](CCCCN)NC(=O)[C@H](CC(C)C)NC(=O)[C@H](CC(C)C)NC(=O)[C@H](CCCCN)NC(=O)[C@H](CCCCN)NC(=O)[C@H](CCCN=C(N)N)NC(=O)[C@@H](N)CCCCN)C(N)=O [KRKKLLKRLI] | – | – | – | – | – | – | – | – | – | – | – | – | – | MIC [10]: 7.72 µM (≈ 9.99 µg/mL); MIC [11]: 7.72 µM (≈ 9.99 µg/mL); MIC [12]: 0.386 µM (≈ 0.5 µg/mL); MIC [13]: 0.0772 µM (≈ 0.1 µg/mL); MIC [14]: 0.772 µM (≈ 0.999 µg/mL); MIC [15]: 7.72 µM (≈ 9.99 µg/mL)
CC(C)C[C@H](NC(=O)[C@H](CC(C)C)NC(=O)[C@H](CCCN=C(N)N)NC(=O)[C@H](CCCCN)NC(=O)[C@H](CC(C)C)NC(=O)[C@H](CC(C)C)NC(=O)[C@H](CCCCN)NC(=O)[C@H](CCCCN)NC(=O)[C@H](CCCN=C(N)N)NC(=O)[C@@H](N)CCCCN)C(N)=O [KRKKLLKRLL] | – | – | – | – | – | – | – | – | – | – | – | – | – | MIC [10]: 3.86 µM (≈ 5 µg/mL); MIC [11]: 7.72 µM (≈ 9.99 µg/mL); MIC [12]: 0.0772 µM (≈ 0.1 µg/mL); MIC [13]: 0.0772 µM (≈ 0.1 µg/mL); MIC [14]: 0.772 µM (≈ 0.999 µg/mL); MIC [15]: 3.86 µM (≈ 5 µg/mL)
CC[C@H](C)[C@@H]1NC(=O)CNC(=O)[C@H](CCCN=C(N)N)NC(=O)[C@H](Cc2ccc(O)cc2)NC(=O)[C@@H](NC(=O)[C@@H](NC(=O)[C@H](CCCN=C(N)N)NC(=O)[C@H](Cc2ccccc2)NC(=O)[C@H](C)NC(=O)[C@H](Cc2c[nH]c3ccccc23)NC(=O)[C@@H](N)CCCCN)C(C)C)CSSC[C@@H](C(=O)N[C@@H](Cc2ccc(O)cc2)C(=O)N[C@@H](CCCN=C(N)N)C(=O)N[C@@H](CCCN=C(N)N)C(=O)N[C@@H](C)C(=O)N[C@@H](CCCN=C(N)N)C(=O)O)NC1=O [KWAFRVCYRGICYRRAR] | 0.113 µM (≈ 0.25 µg/mL) | 0.907 µM (≈ 2 µg/mL) | 0.113 µM (≈ 0.25 µg/mL) | 0.227 µM (≈ 0.5 µg/mL) | 0.0567 µM (≈ 0.125 µg/mL) | 3.63 µM (≈ 7.99 µg/mL) | 0.454 µM (≈ 0.999 µg/mL) | 0.454 µM (≈ 0.999 µg/mL) | 0.454 µM (≈ 0.999 µg/mL) | 0.454 µM (≈ 0.999 µg/mL) | > 7.26 µM | 3.63 µM (≈ 7.99 µg/mL) | 3.63 µM (≈ 7.99 µg/mL) | –
CC[C@H](C)[C@@H]1NC(=O)CNC(=O)[C@H](CCCN=C(N)N)NC(=O)[C@H](Cc2ccc(O)cc2)NC(=O)[C@@H]2CSSC[C@H](NC1=O)C(=O)N[C@@H](Cc1ccc(O)cc1)C(=O)N[C@@H](CCCN=C(N)N)C(=O)N[C@@H](CCCN=C(N)N)C(=O)N[C@H](C(=O)N[C@@H](CCCN=C(N)N)C(=O)O)CSSC[C@H](NC(=O)[C@H](Cc1c[nH]c3ccccc13)NC(=O)[C@@H](N)CCCCN)C(=O)N[C@@H](Cc1ccccc1)C(=O)N[C@@H](C)C(=O)N[C@@H](C(C)C)C(=O)N2 [KWCFAVCYRGICYRRCR] | 0.0572 µM (≈ 0.125 µg/mL) | 0.115 µM (≈ 0.25 µg/mL) | 0.0275 µM (≈ 0.0599 µg/mL) | 0.0572 µM (≈ 0.125 µg/mL) | 0.0137 µM (≈ 0.0299 µg/mL) | 1.83 µM (≈ 3.99 µg/mL) | 0.115 µM (≈ 0.25 µg/mL) | 0.0572 µM (≈ 0.125 µg/mL) | 0.229 µM (≈ 0.499 µg/mL) | 0.229 µM (≈ 0.499 µg/mL) | 3.66 µM (≈ 7.99 µg/mL) | 0.229 µM (≈ 0.499 µg/mL) | 0.229 µM (≈ 0.499 µg/mL) | –
CC[C@H](C)[C@H](NC(=O)[C@H](CC(C)C)NC(=O)[C@H](CCCCN)NC(=O)[C@H](CCCCN)NC(=O)[C@@H](NC(=O)[C@@H](NC(=O)[C@H](CCCCN)NC(=O)[C@H](CCCCN)NC(=O)[C@H](CCCCN)NC(=O)[C@H](CCCCN)NC(=O)[C@H](CCCCN)NC(=O)[C@@H](N)CCCN=C(N)N)[C@@H](C)CC)[C@@H](C)CC)C(N)=O [RKKKKKIIKKLI] | – | – | – | – | – | – | – | – | – | – | – | – | – | MIC [10]: 6.56 µM (≈ 9.99 µg/mL); MIC [11]: 6.56 µM (≈ 9.99 µg/mL); MIC [12]: 1.64 µM (≈ 2.5 µg/mL); MIC [13]: 0.328 µM (≈ 0.5 µg/mL); MIC [14]: 1.64 µM (≈ 2.5 µg/mL); MIC [15]: 6.56 µM (≈ 9.99 µg/mL)

Second part, led by results:

MIC [4] | MIC [5] | MIC [16] | MIC (Acinetobacter baumannii) | MIC [17] | MIC [18] | MIC [19] | MIC [20] | MIC [21] | MIC [22] | MIC (Klebsiella pneumoniae) | MIC (Pseudomonas aeruginosa) | MIC [23] | Compound | further results
0.113 µM (≈ 0.25 µg/mL) | 0.452 µM (≈ 0.998 µg/mL) | 0.226 µM (≈ 0.499 µg/mL) | 0.226 µM (≈ 0.499 µg/mL) | 0.113 µM (≈ 0.25 µg/mL) | 3.62 µM (≈ 7.99 µg/mL) | 0.452 µM (≈ 0.998 µg/mL) | 0.113 µM (≈ 0.25 µg/mL) | 0.226 µM (≈ 0.499 µg/mL) | 0.904 µM (≈ 2 µg/mL) | 3.62 µM (≈ 7.99 µg/mL) | 1.81 µM (≈ 3.99 µg/mL) | 1.81 µM (≈ 3.99 µg/mL) | CC(C)[C@@H]1NC(=O)[C@H](CCCN=C(N)N)NC(=O)[C@H](Cc2ccccc2)NC(=O)[C@@H](NC(=O)[C@H](Cc2c[nH]c3ccccc23)NC(=O)[C@@H](N)CCCCN)CSSC[C@@H](C(=O)N[C@@H](CCCN=C(N)N)C(=O)O)NC(=O)[C@H](CCCN=C(N)N)NC(=O)[C@H](CCCN=C(N)N)NC(=O)[C@H](Cc2ccc(O)cc2)NC(=O)[C@@H]2CSSC[C@H](NC1=O)C(=O)N[C@@H](Cc1ccc(O)cc1)C(=O)N[C@@H](CCCN=C(N)N)C(=O)NCC(=O)NCC(=O)N2 [KWCFRVCYRGGCYRRCR] | –
0.115 µM (≈ 0.25 µg/mL) | 1.83 µM (≈ 3.99 µg/mL) | 0.115 µM (≈ 0.25 µg/mL) | 0.115 µM (≈ 0.25 µg/mL) | 0.0137 µM (≈ 0.0299 µg/mL) | 0.916 µM (≈ 2 µg/mL) | 0.115 µM (≈ 0.25 µg/mL) | 0.115 µM (≈ 0.25 µg/mL) | 0.916 µM (≈ 2 µg/mL) | 0.458 µM (≈ 0.998 µg/mL) | 7.33 µM (≈ 16 µg/mL) | 1.83 µM (≈ 3.99 µg/mL) | 1.83 µM (≈ 3.99 µg/mL) | CC[C@H](C)[C@@H]1NC(=O)CNC(=O)[C@H](CCCN=C(N)N)NC(=O)[C@H](Cc2ccc(O)cc2)NC(=O)[C@@H]2CSSC[C@H](NC1=O)C(=O)N[C@@H](Cc1ccc(O)cc1)C(=O)N[C@@H](CCCN=C(N)N)C(=O)N[C@@H](C)C(=O)N[C@H](C(=O)N[C@@H](CCCN=C(N)N)C(=O)O)CSSC[C@H](NC(=O)[C@H](Cc1c[nH]c3ccccc13)NC(=O)[C@@H](N)CCCCN)C(=O)N[C@@H](Cc1ccccc1)C(=O)N[C@@H](CCCN=C(N)N)C(=O)N[C@@H](C(C)C)C(=O)N2 [KWCFRVCYRGICYRACR] | –
– | – | – | – | – | – | – | – | – | – | > 500 µM | – | – | CC(C)C[C@H](NC(=O)[C@H](CCCCN)NC(=O)[C@H](CCCCN)NC(=O)[C@H](CC(C)C)NC(=O)[C@H](CC(C)C)NC(=O)[C@H](CCCCN)NC(=O)[C@H](CCCCN)NC(=O)[C@@H](N)CC(C)C)C(N)=O [LKKLLKKL] | MIC (Escherichia coli K-12): ≥ 500 µM; MIC [24]: > 500 µM; MIC [25]: ≥ 500 µM
